Consider three compounds from EP0984975B1, “MULTICYCLIC ERYTHROMYCIN DERIVATIVES” (Abbott Laboratories, priority 1997, dated 1998).

A value given as a limit tells only on which side of the number the result lay.

What all share (assay): In vitro assay of antibacterial activity (agar dilution MIC)
Holding throughout (assay type): cell-based
For orientation: In agar dilution the substance is mixed into plates at graded concentrations.

The subject of one assay is CANDIDA ALBICANS CCH 442. Particulars: BHI agar, 35-37 °C for 20 to 24 hours, unit assumed. The protocol:
(§1) Representative compounds of the present invention were assayed in vitro for antibacterial activity as follows: Twelve petri dishes containing successive aqueous dilutions of the test compound mixed with 10 mL of sterilized Brain Heart Infusion (BHI) agar (Difco 0418-01-5) were prepared. Each plate was inoculated with 1:100 (or 1:10 for slow-growing strains, such as Micrococcus and Streptococcus) dilutions of up to 32 different microorganisms, using a Steers replicator block. The inoculated plates were incubated at 35-37 °C for 20 to 24 hours. In addition, a control plate, using BHI agar containing no test compound, was prepared and incubated at the beginning and end of each test.
(§2) An additional plate containing a compound having known susceptibility patterns for the organisms being tested and belonging to the same antibiotic class as the test compound was also prepared and incubated as a further control, as well as to provide test-to-test comparability. Erythromycin A was used for this purpose.
(§3) After incubation, each plate was visually inspected. The minimum inhibitory concentration (MIC) was defined as the lowest concentration of drug yielding no growth, a slight haze, or sparsely isolated colonies on the inoculum spot as compared to the growth control.

For a further assay, the system named is EN[…] ATCC 8043. Particulars: BHI agar, 35-37 °C for 20 to 24 hours, unit assumed. The protocol:
as §1, §2, §3

A further assay has as its system ESCHERICHIA COLI DC-2. The following applies: BHI agar, 35-37 °C for 20 to 24 hours, unit assumed. As for the experimental part: as §1, §2, §3
For another assay, the system named is ESCHERICHIA COLI JUHL. The following applies: unit assumed. The protocol:
as §1, §2, §3

A further assay deals with ESCHERICHIA COLI SS. The following applies: unit assumed. The protocol: as §1, §2, §3
Assay [1] deals with MYCOBACTERIUM SMEGMATIS ATCC 114. The following applies: BHI agar, 35-37 °C for 20 to 24 hours, unit assumed. The protocol:
as §1, §2, §3

A further assay deals with M[…] ATCC 4698. The following applies: BHI agar, 35-37 °C for 20 to 24 hours, unit assumed. As for the experimental part: as §1, §2, §3
For a further assay, the system named is M[…] ATCC 9341. Particulars: BHI agar, 35-37 °C for 20 to 24 hours, unit assumed. As for the experimental part: as §1, §2, §3
In another assay the test system is N. ASTEROIDES ATCC 9970. The following applies: BHI agar, 35-37 °C for 20 to 24 hours, unit assumed. As for the experimental part:
as §1, §2, §3

Assay [2] deals with STAPHYLOCOCCUS AUREUS 1775. Particulars: BHI agar, 35-37 °C for 20 to 24 hours, unit assumed. As for the experimental part: as §1, §2, §3
Assay [3] concerns STAPHYLOCOCCUS AUREUS A-5278. Particulars: BHI agar, 35-37 °C for 20 to 24 hours, unit assumed. The protocol: as §1, §2, §3
Assay [4] relates to STAPHYLOCOCCUS AUREUS A5177. Particulars: BHI agar, 35-37 °C for 20 to 24 hours, unit assumed. As for the experimental part:
as §1, §2, §3

In assay [5] the test system is STAPHYLOCOCCUS AUREUS ATCC 6538P. Particulars: BHI agar, 35-37 °C for 20 to 24 hours, unit assumed. As for the experimental part: as §1, §2, §3
Assay [6] concerns STAPHYLOCOCCUS AUREUS CMX 553. The following applies: BHI agar, 35-37 °C for 20 to 24 hours, unit assumed. As for the experimental part:
as §1, §2, §3

The subject of assay [7] is STAPHYLOCOCCUS AUREUS CMX 642A. Particulars: BHI agar, 35-37 °C for 20 to 24 hours, unit assumed. The protocol:
as §1, §2, §3

The subject of assay [8] is STAPHYLOCOCCUS AUREUS NCTC10649M. The following applies: BHI agar, 35-37 °C for 20 to 24 hours, unit assumed. The protocol:
as §1, §2, §3

Assay [9] relates to STAPHYLOCOCCUS EPIDERMIDIS 3519. Particulars: unit assumed. As for the experimental part:
as §1, §2, §3

For assay [10], the system named is STREPTOCOCCUS BOVIS A-5169. Particulars: BHI agar, 35-37 °C for 20 to 24 hours, unit assumed. The protocol:
as §1, §2, §3

The test system of assay [11] is STREPTOCOCCUS PYOGENES 930. The following applies: BHI agar, 35-37 °C for 20 to 24 hours, unit assumed. The protocol: as §1, §2, §3
Assay [12] relates to STREPTOCOCCUS PYOGENES EES61. The following applies: BHI agar, 35-37 °C for 20 to 24 hours, unit assumed. The protocol: as §1, §2, §3
Assay [13] deals with STREPTOCOCCUS PYOGENES PIU 2548. Particulars: BHI agar, 35-37 °C for 20 to 24 hours, unit assumed. The protocol:
as §1, §2, §3

In a further assay the test system is STR[…] 508. The following applies: BHI agar, 35-37 °C for 20 to 24 hours, unit assumed. The protocol: as §1, §2, §3
[14] abbreviates: ESCHERICHIA COLI JUHL, BHI agar, 35-37 °C for 20 to 24 hours.
Where [15] appears, read: ESCHERICHIA COLI SS, BHI agar, 35-37 °C for 20 to 24 hours.
[16] abbreviates: MYCOBACTERIUM SMEGMATIS ATCC 114.
[17] abbreviates: STAPHYLOCOCCUS EPIDERMIDIS 3519, BHI agar, 35-37 °C for 20 to 24 hours.
The mark [18] stands for this setting: STREPTOCOCCUS PYOGENES PIU 2548.
The mark [19] stands for this setting: STREPTOCOCCUS AGALACTIAE CMX 508.

`CC[C@H]1OC(=O)[C@H](C)[C@@H](O[C@H]2C[C@@](C)(OC)[C@@H](O)[C@H](C)O2)[C@H](C)[C@@H](O[C@@H]2O[C@H](C)C[C@H](N(C)C)[C@H]2O)[C@](C)(O)C[C@@H](C)C(=O)[C@H](C)[C@@H](O)[C@]1(C)O` [Ery A, Erythromycin A, reference compound]: the Antibacterial Activity (MIC's) is over 100 µg/mL in the assay with CANDIDA ALBICANS CCH 442; 0.1 µg/mL with EN[…] ATCC 8043 (EN[…] ATCC 8043); 100 µg/mL with ESCHERICHIA COLI DC-2; 50 µg/mL in the assay with ESCHERICHIA COLI JUHL; 0.39 µg/mL in the assay with ESCHERICHIA COLI SS; 1.56 µg/mL in assay [1] (MYC[…] ATCC 114). Further, the Antibacterial Activity (MIC's) in the assay on M[…] ATCC 4698 (M[…] ATCC 4698) was 0.39 µg/mL; in the assay on M[…] ATCC 9341 (M[…] ATCC 9341), 0.02 µg/mL; in the assay with N. ASTEROIDES ATCC 9970, 0.1 µg/mL; in assay [2], over 100 µg/mL; in [3], over 100 µg/mL; in assay [4] it was 3.1 µg/mL. Besides, the Antibacterial Activity (MIC's) in [5] is 0.2 µg/mL; in assay [6], 0.39 µg/mL; in [7], 0.39 µg/mL; in [8] it was 0.39 µg/mL; in assay [9], 0.2 µg/mL; in assay [10] (STR[…] A-5169), 0.01 µg/mL. Moreover, the Antibacterial Activity (MIC's) is over 100 µg/mL in assay [11] (STR[…] 930), 0.02 µg/mL in assay [12] (STR[…] EES61), 3.1 µg/mL in assay [13] (STR[…] PIU 2548) and 0.02 µg/mL in the assay with STR[…] 508 (STR[…] 508).

In the case of `CC[C@H]1OC(=O)[C@H](C)C(=O)[C@H](C)[C@@H](O[C@@H]2O[C@H](C)C[C@H](N(C)C)[C@H]2O)[C@](C)(OC)C[C@@H](C)C2=Nc3ccccc3N3C(=O)O[C@@]1(C)[C@H]3[C@H]2C` [Ex 2, Compound of Formula (I): R^1 is methoxy: R^2 is H, R^3 is absent, the double bond is present, A, B, D and E are H, and Y and Z taken together with the atom to which they are attached form an oxo group], the Antibacterial Activity (MIC's) in the assay on CANDIDA ALBICANS CCH 442 is over 100 µg/mL; with EN[…] ATCC 8043 (ENTEROCOCCUS FAECIUM ATCC 8043), 0.2 µg/mL; with ESCHERICHIA COLI DC-2 it was over 100 µg/mL; in the assay with ESCHERICHIA COLI JUHL (setting [14]) it was over 100 µg/mL; in the assay on ESCHERICHIA COLI SS (setting [15]) it was 1.56 µg/mL; in assay [1] (setting [16]) it was 3.1 µg/mL. For the same compound, the Antibacterial Activity (MIC's) is 0.78 µg/mL in the assay with M[…] ATCC 4698 (MICROCOCCUS LUTEUS ATCC 4698); 0.1 µg/mL in the assay on M[…] ATCC 9341 (MICROCOCCUS LUTEUS ATCC 9341); 0.39 µg/mL in the assay on N. ASTEROIDES ATCC 9970; over 100 µg/mL in assay [2]; over 100 µg/mL in assay [3]; 0.39 µg/mL in [4]. Also, the Antibacterial Activity (MIC's) was 0.39 µg/mL in assay [5]; 0.39 µg/mL in assay [6]; 0.39 µg/mL in assay [7]; 0.39 µg/mL in assay [8]; 0.39 µg/mL in assay [9] (setting [17]); 0.1 µg/mL in assay [10] (STREPTOCOCCUS BOVIS A-5169). For the same compound, the Antibacterial Activity (MIC's) in assay [11] (STREPTOCOCCUS PYOGENES 930) was over 100 µg/mL; in assay [12] (STREPTOCOCCUS PYOGENES EES61), 0.1 µg/mL; in assay [13] (setting [18]), 0.39 µg/mL; in the assay with STR[…] 508 (setting [19]), 0.1 µg/mL.

For the compound `CC[C@H]1OC(=O)[C@H](C)C(=O)[C@H](C)[C@@H](O[C@@H]2O[C@H](C)C[C@H](N(C)C)[C@H]2O)[C@](C)(OC)C[C@@H](C)C2=Nc3cc(OC)ccc3N3C(=O)O[C@@]1(C)[C@H]3[C@H]2C` [Ex 5, Compound of Formula (I): R^1 is methoxy; R^2 is H, R^3 is absent, the double bond is present, A, B, and E are H, D is methoxy, and Y and Z taken together with the atom to which they are attached form an oxo group], the Antibacterial Activity (MIC's) in the assay on CANDIDA ALBICANS CCH 442 is over 100 µg/mL; with EN[…] ATCC 8043 (ENTEROCOCCUS FAECIUM ATCC 8043), 0.1 µg/mL; in the assay on ESCHERICHIA COLI DC-2 it was over 100 µg/mL; in the assay with ESCHERICHIA COLI JUHL (setting [14]) it was over 100 µg/mL; in the assay on ESCHERICHIA COLI SS (setting [15]) it was 50 µg/mL; in assay [1] (setting [16]), 1.56 µg/mL. Further, the Antibacterial Activity (MIC's) with M[…] ATCC 4698 (MICROCOCCUS LUTEUS ATCC 4698) is 0.78 µg/mL; in the assay on M[…] ATCC 9341 (MICROCOCCUS LUTEUS ATCC 9341), 0.1 µg/mL; in the assay with N. ASTEROIDES ATCC 9970 it was 0.2 µg/mL; in assay [2] it was over 100 µg/mL; in assay [3], over 100 µg/mL; in assay [4], 0.78 µg/mL. The Antibacterial Activity (MIC's) in [5] was determined as 0.78 µg/mL; in [6], 0.78 µg/mL; in assay [7], 0.78 µg/mL; in [8], 0.78 µg/mL; in assay [9] (setting [17]), 0.78 µg/mL; in [10] (STREPTOCOCCUS BOVIS A-5169) it was 0.02 µg/mL. For the same compound, the Antibacterial Activity (MIC's) in [11] (STREPTOCOCCUS PYOGENES 930) is over 100 µg/mL; in assay [12] (STREPTOCOCCUS PYOGENES EES61), 0.02 µg/mL; in assay [13] (setting [18]), 0.39 µg/mL; with STR[…] 508 (setting [19]), 0.02 µg/mL.
